US8318781B2, “G-protein-conjugated receptor agonist” (Japan Science and Technology Agency, priority 2007, dated 2012)

Assays:
Format in all cases: cell-based
human GPR40 (hGPR40) [1] = target: T1, human GPR40 (hGPR40) (Homo sapiens, UniProt O14842); test: ERK assay, screening for GPR40 ligands in cell line TXGPR40; settings: TXGPR40 cells; for ERK activation for GPR40 (in words): FIGS. 1-4; for ERK/GPR40 100 μM: ligand 100 μM
T1 construct: expressed in transfected cells; doxycycline-inducible expression vector
Procedure: (§1) This Test 1 was carried out by using the following materials and methods.
(§2) (1) In this test, the cell lines TXGPR40 and TXGPR120 were plated in 35-mm dishes in 5×10^5 cells/per dish.
(§3) Each ligand was dissolved in DMSO, diluted tenfold with the medium to make the total amount of 100 μl. DMSO was used as the negative control, and PMA (phorbol-12-myristate-13-acetate) was used as the positive control.
(§4) (3) The medium was removed from the dish of the cell to reduce the total amount of liquid to 0.9 ml.
(§5) (4) The ligand solution was added dropwise to the cell solution, and dispersed by gently shaking the dish, and allowed to react at room temperature.
(§6) (5) After 5 minutes of reaction, the medium was discarded, and the remaining medium on the dish was removed on ice using an aspirator.
(§7) (6) 150 μl of Lysis buffer (50 mM HEPES (pH 7.0), 150 mM NaCl, 10% glycerol, 1% NonidetP-40, 2 mM MgCl2, 1 mM EDTA, 100 mM NaF, 10 mM sodium phosphate, 1 mM Na3VO4, 20 mM β-glycerophosphate, and Proteinase inhibitor) were added, then the cells were collected using a cell scraper.
(§8) (1) The crude enzyme solution mixed with SDS Sample Buffer was subjected to ultrasonication with a sonifier, then incubated at 90° C. for five minutes.
(§9) (2) The mixture was vortexed and centrifuged at 15,000 rpm for five minutes at 4° C.
(§10) (3) The supernatant of the centrifuged sample was applied to two 7.5% acrylamide gel slabs placed in an electrophoresis tank filled with 1×SDS-PAGE Running Buffer (25 mM Tris, 0.2 M Glycin, and 1% SDS). Electrophoresis was carried out under a constant current of 40 mA for about 80 to 90 minutes.
(§11) (1) A PVDF membrane cut in the same size as the gel slab was immersed in methanol for about 15 seconds and then shaken in Transfer Buffer C solution (25 mM Tris, 0.02% SDS, 2% methanol and 40 mM 6-aminohexanoic acid) at room temperature to swell for 15 minutes. Filter paper for blotting was cut into a 10-cm square.
(§12) (2) On the blotting apparatus were placed sequentially two pieces of filter paper immersed in A solution (0.3 M Tris, 0.02% SDS and 2% methanol), two pieces of filter paper immersed in B solution (25 mM Tris, 0.02% SDS and 2% methanol), and the membrane thereon. The gel slab after electrophoresis, and finally two pieces of filter paper immersed in C solution was placed thereon, and the apparatus was closed.
(§13) (3) The protein was transferred to the membrane at 15 V for 30 minutes.
(§14) (1) The following procedure was all carried out at room temperature. After the protein transfer, the membrane was placed into a vial containing 1×TTBS (0.2 M Tris, 1.5 M NaCl, 0.2% Tween 20) and washed for 15 minutes.
(§15) (2) TTBS was discarded, and about 10 ml of Block Ace was added and blocked on a shaker for one hour.
(§16) (1) The primary antibodies (p44/42 MAP Kinase Antibody and Phospho-p44/42 MAP Kinase Antibody) were each diluted 1000-fold with TTBS.
(§17) (2) After blocking, the Block Ace solution was removed, the solution of the primary antibody was added and allowed to react on the shaker for two hours.
(§18) (1) The secondary antibody (Anti-rabbit Ig, Horseradish Peroxidase linked F(ab′)2 fragments) was diluted 5000-fold with TTBS.
(§19) (2) The primary antibody solution was removed and the membrane was washed three times on the shaker in TTBS for five to ten minutes each.
(§20) (3) TTBS was removed and the solution of secondary antibody was added and left for 1 hour on the shaker.
(§21) (1) 2 ml each of Detection Reagent 1 and Detection Reagent 2 from ECL kit were mixed together on ice.
(§22) (2) The solution of secondary antibody was removed from the membrane reacted with the secondary antibody and then washed three times on the shaker in TTBS for five minutes each.
(§23) (3) The liquid was thoroughly removed from the membrane, which was then placed in a plastic bag, and 2 ml of the Detection Reagent mixture was added per each membrane.
(§24) (4) The membrane was kept in contact with a film in the cassette for one to five minutes, and the film was developed using an automatic developing machine.

human GPR120 (hGPR120) [2] = target: T2, human GPR120 (hGPR120) (Homo sapiens, UniProt Q5NUL3); test: ERK assay, screening for GPR120 ligands in cell line TXGPR120;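 as to ERK/GPR120 10 μM: signals normalized between DMSO and PMA controls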; settings: for ERK activation for GPR120 (in words) / ERK/GPR120 10 μM / ERK/GPR120 100 μM: TXGPR120 cells; for ERK activation for GPR120 (in words): FIGS. 5-8; for ERK/GPR120 10 μM: ligand 10 μM; for ERK/GPR120 10 μM / ERK/GPR120 100 μM: class relative to LA; for ERK/GPR120 100 μM: ligand 100 μM
T2 construct: expressed in transfected cells; doxycycline-inducible expression vector
T2 sequence (Q5NUL3 1-361): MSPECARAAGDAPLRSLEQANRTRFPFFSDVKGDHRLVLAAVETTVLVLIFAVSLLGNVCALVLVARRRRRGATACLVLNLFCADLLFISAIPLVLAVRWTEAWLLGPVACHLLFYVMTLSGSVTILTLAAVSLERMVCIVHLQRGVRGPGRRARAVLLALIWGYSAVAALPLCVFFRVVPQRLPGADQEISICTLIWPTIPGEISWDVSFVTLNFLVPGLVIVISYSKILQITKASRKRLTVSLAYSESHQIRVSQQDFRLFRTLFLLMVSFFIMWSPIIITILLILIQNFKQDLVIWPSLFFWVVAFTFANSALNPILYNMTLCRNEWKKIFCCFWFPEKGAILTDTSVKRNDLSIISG
Procedure: as §1, §2, §3, §4, §5, §6, §7, §8, §9, §10, §11, §12, §13, §14, §15, §16, §17, §18, §19, §20, §21, §22, §23, §24

human GPR40 (hGPR40) [3] = target: T1, human GPR40 (hGPR40); test: Determination of intracellular Ca2+ concentration (FLIPR), cell line TXGPR40; settings: for [Ca^2+]/GPR40 10 μM (ratio vs. LA): relative fluorescence intensity vs LA at 10 μM, TXGPR40 cells
Procedure: (§25) (1) In this test, The cell lines TXGPR40, TXGPR120 and GPR120/Flp-in were plated onto a collagen-coated black 96-well plate in 2×10^5 cells/well. The 96-well plates containing the cells were centrifuged and treated with Doxycycline (final concentration 10 μg/mL), incubated in a CO2 incubator for 21 hours, then used for assay.
(§26) (2) The ligand used in this test includes NCP04, NCP14, NCG20, NCG21, NCG22, NCG23, NCP02, NCP03, NCP05, NCP06, NCG14, NCG17, NCG19, NCG28, NCG29, NCG30, NCG31, NCG34, NCG35, NCG37, NCG38, NCG44, NCG45, NCG46, and NCG54. Each ligand was dissolved in DMSO and adjusted to the concentration of 10 mM, then diluted with Hanks' Balanced Salt Solution (pH 7.4) containing 20 mM HEPES (referred to as FLIPR buffer hereinafter) to the final concentration of 1 to 100 μM. 1% DMSO was used as the negative control, and LA was used as the positive control.
(§27) The ligands and controls were placed in different 96-well plates from the plates for the cells.
(§28) (3) The 96-well plate containing the cells was removed from the CO2 incubator. A fluorescent dye prepared in a twofold higher concentration (Ca Assay Kit Component A diluted with FLIPR Buffer) was added in 50 μL/well, then allowed to stand in the dark at room temperature for one hour.
(§29) (4) After one hour, the 96-well plate containing the cells and the 96-well plate in which ligands and controls were prepared were set on FLIPR (Fluorometric Imaging Plate Reader) for determination.
(§30) (5) Fluorometry using FLIPR was carried out at a laser output of 1.0 W for five minutes. […] after the start of the determination, the ligand (25 μL) was added dropwise to the cell plate at a rate of 50 μL/sec. The intensity of fluorescence was automatically digitized by the application program installed in the FLIPR from the image taken by the CCD camera (with exposure time of 0.40 sec). The interval of data sampling was one second for the initial one minute after the start of operation, and six seconds for the subsequent four minutes.
(§31) (6) The maximum fluorescence intensity was obtained from the data showing the change in the fluorescence intensity over time observed in each well. The maximum fluorescence intensity was plotted against ligand concentration, and pEC50 was calculated. The ratio of the fluorescence intensity for each ligand to LA at 10 μM was calculated as the relative intensity of each ligand.

human GPR120 (hGPR120) [4] = target: T2, human GPR120 (hGPR120); test: Determination of intracellular Ca2+ concentration (FLIPR), cell line TXGPR120; settings: for agonistic activity for hGPR120 (in words): cells in which GPR120 has been transgenically expressed; for [Ca^2+]/GPR120 10 μM (ratio vs. LA): relative fluorescence intensity vs LA at 10 μM
Procedure: as §25, §26, §27, §28, §29, §30, §31

human GPR120 (hGPR120) [5] = target: T2, human GPR120 (hGPR120); test: Determination of intracellular Ca2+ concentration (FLIPR), cell line GPR120/Flp-in; settings: for [Ca^2+]/GPR120/Flp-In 10 μM (ratio vs. LA): relative fluorescence intensity vs LA at 10 μM
Procedure: as §25, §26, §27, §28, §29, §30, §31

T1 sequence (O14842 whole entry): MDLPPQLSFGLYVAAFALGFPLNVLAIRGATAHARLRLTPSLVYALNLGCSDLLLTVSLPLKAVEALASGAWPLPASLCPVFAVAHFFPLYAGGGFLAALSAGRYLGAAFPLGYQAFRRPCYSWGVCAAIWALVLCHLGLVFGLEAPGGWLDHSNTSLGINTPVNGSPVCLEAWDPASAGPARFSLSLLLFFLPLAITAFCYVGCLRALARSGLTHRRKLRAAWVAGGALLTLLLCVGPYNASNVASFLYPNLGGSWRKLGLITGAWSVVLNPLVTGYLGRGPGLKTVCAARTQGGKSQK

ERK activation for GPR40 (in words) (human GPR40 (hGPR40) [1])	ERK/GPR40 100 μM (human GPR40 (hGPR40) [1]; class relative to LA)	selectivity for GPR120 in ERK assay (in words) (human GPR120 (hGPR120) [2]; GPR120 versus GPR40)	ERK activation for GPR120 (in words) (human GPR120 (hGPR120) [2])	ERK/GPR120 10 μM (human GPR120 (hGPR120) [2])	ERK/GPR120 100 μM (human GPR120 (hGPR120) [2])	[Ca^2+]/GPR40 10 μM (ratio vs. LA) (human GPR40 (hGPR40) [3])	EC50 (human GPR120 (hGPR120) [4]; TXGPR120 cells, maximum fluorescence intensity vs ligand concentration, read-out: [Ca^2+]/GPR120 pEC50 (converted)) [µM]	agonistic activity for hGPR120 (in words) (human GPR120 (hGPR120) [4])	[Ca^2+]/GPR120 10 μM (ratio vs. LA) (human GPR120 (hGPR120) [4]; TXGPR120 cells)	EC50 (human GPR120 (hGPR120) [5]; GPR120/Flp-in cells, maximum fluorescence intensity vs ligand concentration, read-out: [Ca^2+]/GPR120/Flp-In pEC50 (converted)) [µM]	[Ca^2+]/GPR120/Flp-In 10 μM (ratio vs. LA) (human GPR120 (hGPR120) [5]; GPR120/Flp-in cells)	ERK/GPR40 10 μM (human GPR40 (hGPR40) [1]; ligand 10 μM, class relative to LA)	EC50 (human GPR40 (hGPR40) [3]) [µM]	agonistic activity for GPR40 (in words) (human GPR40 (hGPR40) [3]; cells in which GPR40 has been transgenically expressed)	EC50 (human GPR120 (hGPR120) [4]) [µM]	EC50 (human GPR120 (hGPR120) [5]) [µM]	Compound	selectivity between GPR40 and GPR120 (in words), from Tables 3 and 4 (human GPR120 (hGPR120) [4]; GPR40 versus GPR120, Ca2+ and ERK results)
strongly activated ERK	+ (+ denotes 0 to 100% of LA)	selective for GRP120	strongly activate ERK	++ (++ denotes 50 to 100% of LA)	+++ (+++ denotes a higher value than LA)	0.01	15.5	exhibit a similar effect	0.71	3.72	0.88						O=C(O)CCCc1ccc(OCCN(c2ccccc2)c2cccnc2)cc1 [NCG30]	acting relatively mildly for GPR40 but acting strongly for GPR120
strongly activated ERK	+++ (+++ denotes a higher value than LA)		strongly activate ERK	+++ (+++ denotes a higher value than LA)	+++ (+++ denotes a higher value than LA)	0.32		exhibit a similar effect	0.61		0.73	+++ (+++ denotes a higher value than LA)	19.1	showed a specific reactivity	17	6.92	O=C(O)CCCc1ccc(OCCN(c2ccccc2)c2nc3ccccc3s2)cc1 [NCG31]	
